# Measured values reported in patent US4053481A, “2-Aryl-3,4-diphenylisoxazolin-5-ones” (G. D. Searle & Co., priority 1976, dated 1977).
# System: microsomal-cytosol fraction
# Assay: % inhibition of C14-acetate incorporation into lipid fractions (fatty acid and cholesterol biosynthesis) in rat liver microsomal-cytosol fraction
# Format: biochemical, Male Charles River rats
# Conditions: 0.001 M; 37° C., 90 minutes
# Description: The instant compounds are useful as pharmacological agents as evidenced by their ability to reduce serum triglyceride and cholesterol levels as determined in the following assay:
# Male Charles River rats (160-200 g.), having had free access to food and water, are administered a standard diet containing 2% DEAE - cellulose (Reeve Angel anion exchange resin) for 5 days. The rats then are sacrificed and their livers removed immediately. The livers are homogenized in a medium consisting of 0.1 M potassium phosphate, pH 7.4, 0.004 m MgCl2 and 0.03 M nicotinamide, and the microsomalcytosol fraction obtained by centrifugation. 2.0 Ml. of the microsomal-cytosol fraction is incubated, at 37° C. for 90 minutes for fatty acid measurements and for measurement of cholosterol biosynthesis, in a standard assay mixture containing 10 micromoles of sodium acetate containing 0.1 microcuries of 2-C^14 -acetate, 2 micromoles nicotinamide adenine dinucleotide, 2 micromoles nicotinamide adenine dinucleotide phosphate, and 20 micromoles glucose-6-phosphate, and test compound, initially at 0.001 M, is added. All assays are run in duplicate with the assay to which no test compound is added serving as control. Heat inactivated homogenate serves as blank for both control and test systems.
# Reaction rate is determined per unit of time by the amount of C^14 label incorporated into the lipid fraction from the radioactive acetate. Results are reported as % inhibition (i.e. (Difference in Reaction Rate between Control and Test Compound/Reaction Rate for Control) × 100).
# Typical results are shown below in Table I for the product of Example 2, referred to as Compound I. Also represented are the results for Atromid S® , a brand of clofibrate, marketed as a hypocholesterolemic agent.
smiles,measurement,value
"CCOC(=O)C(C)(C)Oc1ccc(Cl)cc1 [Atromid-S, clofibrate]","% Inhibition, Fatty Acid Fraction",24%
same,"% Inhibition, Fraction (first column, qualifier not given)",28%
same,"% Inhibition, Non-Lipid Fraction",42%
